Data: PMC10906075 (2024)

Columns and labels:
[1] = tested on: FAM-labeled phenylalanine aptamer (DNA, aptamer) CTCTCGGGACGACGAGGCTGGATGCATTCGCCGGATGTTCGATGTCGTCCC; assay: strand-displacement fluorescence assay (FAM/dabcyl); details: PBS (~150 mM salt), 2 mM MgCl2, dabcyl quencher strand GTCGTCCCGAGAG (S4) displaced, 50 nM aptamer, 150 nM quencher, ~40 min, ambient
[2] = tested on: Phe peptide (Phe1) (designed); assay: OWLS; details: 1x PBS, thiol for surface coupling (end not stated), OWLS: 1x PBS, nanopore: PBS (~150 mM salt), 0.5-1.5 V, pH and temperature not given
[3] = tested on: Phe peptide (Phe1) (designed); assay: interface nanopore; details: PBS, 1.5 V, 1.0 uN; thiol for surface coupling (end not stated); OWLS: 1x PBS; nanopore: PBS (~150 mM salt), 0.5-1.5 V; pH and temperature not given

binding [1]	Compound	further results
yes	NC(=O)[C@@H](N)Cc1ccccc1	–
yes	N[C@@H](Cc1ccccc1)C(=O)O	–
no	N[C@@H](Cc1ccc(O)cc1)C(=O)O	–
weak	NCCc1ccccc1	–

More lines, now with the values behind:

Compound	binding [1]	further results
ATTGCTATTCACCGGCGCGGGGCTGGGGCATCGGTAAT [scrambled sequence]	–	binding signal (ng/cm2 adsorbed mass) ([2]; attributed to nonspecific electrostatic binding): 140; binding signal (ms translocation time) [3]: 11
CGACGAGGCTGGATGCATTCGCCGGATGTTCGATGTCG [phenylalanine aptamer]	–	binding signal (ng/cm2 adsorbed mass) ([2]; peptide retained after buffer rinse): 198; binding signal (ms translocation time) [3]: 190
N[C@@H](Cc1c[nH]c2ccccc12)C(=O)O	no	–
